From patent US20080140036A1, “Antimicrobial Composition” (priority 2004, published 2008)

Assays:
MRSA 15 = assay: ZOI of triclosan vapours (vapour phase)
[1] = test system: EMRSA m97 271 032 phage group 10; assay: ZOI of triclosan vapours (vapour phase)
[2] = test system: all staphylococcal strains; assay: Vapours of triclosan, all strains; format: cell-based, Staphylococcus; conditions: vapour phase
[3] = test system: EMRSA m97 271 042 phage group 12; assay: ZOI of triclosan vapours (vapour phase)
MRSA 11 = assay: ZOI of triclosan vapours (vapour phase)
MRSA 17 = assay: ZOI of triclosan vapours (vapour phase)
[4] = test system: EMRSA m97271052 phage group 4; assay: ZOI of triclosan vapours (vapour phase)
[5] = test system: EMRSA m97 271 031 phage group 1; assay: ZOI of triclosan vapours (vapour phase)
MSSA (4) = assay: ZOI of triclosan vapours (vapour phase); format: cell-based, S. aureus
[6] = test system: S. haemolyticus NCTC 11042; assay: ZOI of triclosan vapours (vapour phase); format: cell-based
MSSA (48) = assay: ZOI of triclosan vapours (vapour phase); format: cell-based, S. aureus
[7] = test system: Oxford S. aureus NCTC 6571; assay: ZOI of triclosan vapours (vapour phase); format: cell-based

Oc1cc(Cl)ccc1Oc1ccc(Cl)cc1Cl [triclosan]
ZOI Average (MRSA 15; average): 50 mm | ZOI 1 (MRSA 15; replicate 1): 50 mm | ZOI 2 (MRSA 15; replicate 2): 50 mm | ZOI Average ([1]; average): 49 mm | ZOI 1 ([1]; replicate 1): 49 mm | ZOI 2 ([1]; replicate 2): 49 mm | effect of vapours on growth [2]: effective at inhibiting growth of all staphylococcal strains | ZOI Average ([3]; average): 45 mm | ZOI 1 ([3]; replicate 1): 45 mm | ZOI 2 ([3]; replicate 2): 45 mm | ZOI Average (MRSA 11; average): 43 mm | ZOI 1 (MRSA 11; replicate 1): 43 mm | ZOI 2 (MRSA 11; replicate 2): 43 mm | ZOI Average (MRSA 17; average): 32 mm | ZOI 1 (MRSA 17; replicate 1): 31 mm | ZOI 2 (MRSA 17; replicate 2): 33 mm | ZOI Average ([4]; average): 50 mm | ZOI 1 ([4]; replicate 1): 50 mm | ZOI 2 ([4]; replicate 2): 50 mm | ZOI Average ([5]; average): 41 mm | ZOI 1 ([5]; replicate 1): 42 mm | ZOI 2 ([5]; replicate 2): 40 mm | ZOI Average (MSSA (4); average): 51 mm | ZOI 1 (MSSA (4); replicate 1): 50 mm | ZOI 2 (MSSA (4); replicate 2): 52 mm | ZOI Average ([6]; average): 46 mm | ZOI 1 ([6]; replicate 1): 48 mm | ZOI 2 ([6]; replicate 2): 44 mm | ZOI Average (MSSA (48); average): 48.5 mm | ZOI 1 (MSSA (48); replicate 1): 49 mm | ZOI 2 (MSSA (48); replicate 2): 48 mm | ZOI Average ([7]; average): 51 mm | ZOI 1 ([7]; replicate 1): 50 mm | ZOI 2 ([7]; replicate 2): 52 mm
